Measured values published in patent US5281406A, “Recovery of C60 and C70 buckminsterfullerenes from carbon soot by supercritical fluid extraction and their separation by adsorption chromatography” (Analytical Bio-Chemistry Laboratories, Inc., priority 1992, dated 1994).
In brackets after ≈: the same amount, converted by molar mass. Several values for one entry are separate records, joined by “and”; a condition that tells them apart may be missing. Identical values can stand only once.

What was measured:
[1] = Solubility of C60 and C70 fullerenes in methylene chloride/toluene mixtures; assay type: physicochemical
Excerpt: The solubilities of C60 and C70 were established for the binary solvent system of toluene and methylene chloride using mixtures varying in composition from 100% to 0% of each component.

[2] = Reported or stated solubility in single organic solvents (benzene, liquid toluene, organic solvents); assay type: physicochemical
[3] = room temperature; cited from earlier work
[4] = stable to pressures up to; Yoo and Nellis, Science, 254, p. 1489, 1991; cited from earlier work
[5] = many organic solvents, several weeks; cited from earlier work
[6] = 0.0% CH2Cl2 / 100% toluene, duplicate samples 1 and 2
[7] = 25.0% CH2Cl2 / 75% toluene, duplicate samples 3 and 4
[8] = 50.0% CH2Cl2 / 50% toluene, duplicate samples 5 and 6
[9] = 75.0% CH2Cl2 / 25% toluene, duplicate samples 7 and 8
[10] = 100.0% CH2Cl2 / 0% toluene, duplicate samples 9 and 10

Structure (SMILES)	Solubility [1, 6]	Solubility [1, 7]	Solubility [1, 8]	Solubility [1, 9]	Solubility [1, 10]	Solubility in organic solvents (in words) [2]	Reported solubility in benzene [3]	Reported stability to pressure [4]	Stability in organic solvents (in words) [5]
c12c3c4c5c1c1c6c7c2c2c8c3c3c9c4c4c%10c5c5c1c1c6c6c%11c7c2c2c7c8c3c3c8c9c4c4c9c%10c5c5c1c1c6c6c%11c2c2c7c3c3c8c4c4c9c5c1c1c6c2c3c41 [C60, buckminsterfullerene]	3530 µg/mL and 3470 µg/mL	2830 µg/mL (≈ 3930 µM)	1783 µg/mL and 1797 µg/mL	895 µg/mL and 896 µg/mL	556 µg/mL and 526 µg/mL	very low solubility	5000 µg/mL	up to 2.5×10^6 psi	stable in many organic solvents for several weeks
c12c3c4c5c1c1c6c7c2c2c8c3c3c9c4c4c%10c5c5c1c1c6c6c%11c%12c%13c%14c%15c%16c%17c%14c%14c%18c%13c%11c1c1c5c%10c5c(c%14c%10c%17c%11c%13c%16c%14c%16c%15c%12c%12c%16c(c2c7c%126)c2c8c3c(c%13c%142)c2c9c4c5c%10c%112)c%181 [C70]	611 µg/mL and 597 µg/mL	500 µg/mL (≈ 595 µM)	328 µg/mL and 330 µg/mL	184 µg/mL (≈ 219 µM)	106 µg/mL and 95 µg/mL	very low solubility			
